The values that follow come from ChEMBL document CHEMBL1145701, “Spinonin, a novel glycoside from Ononis spinosa subsp. leiosperma” (1997).

Values after ≈ are worked out from the molar mass of the structure shown. Active and inactive are the calls of the source. No cut-off for these calls is given here.

For experiment [1], the system named is Pseudomonas aeruginosa. Put plainly: Antimicrobial activity against Pseudomonas aeruginosa ATCC 9027 by paper-disk diffusion method. The experiment is classed as functional.
Experiment [2] has as its system Streptococcus. Put plainly: Antimicrobial activity against beta-hemolytic Streptococcus isolate 48 by paper-disk diffusion method. It counts as functional.
The subject of experiment [3] is SK-N-SH. Put plainly: Cytotoxicity against human SK-N-SH cells […]. The experiment is classed as functional, cell-based.
In experiment [4] the target is Human immunodeficiency virus type 1 reverse transcriptase (Human immunodeficiency virus 1) (UniProt Q72547). In words: Inhibition of HIV1 reverse transcriptase.
The subject of experiment [5] is Lu1. Put plainly: Cytotoxicity against human Lu1 cells. It counts as functional, cell-based.
Experiment [6] has as its system BC1. In words: Cytotoxicity against human BC1 cells. The experiment is classed as functional, cell-based.
Experiment [7] has as its system KBVIN. In words: Cytotoxicity against human KBVIN cells in presence of vinblastine. It counts as functional, cell-based.

In the case of `COc1ccc2c(c1)O[C@H]1c3ccc(O[C@@H]4O[C@H](CO)[C@@H](O)[C@H](O)[C@H]4O)cc3OC[C@@H]21`, in experiment [1], the MIC came to 200 µg/mL (≈ 463 µM).
In experiment [2], `COc1ccc(-c2coc3cc(O[C@@H]4O[C@H](CO)[C@@H](O)[C@H](O)[C@H]4O)ccc3c2=O)cc1` [ONONIN] came in with an MIC of 25 µg/mL (≈ 58.1 µM).
Consider `O=C1C=C(c2ccc(O)cc2O[C@@H]2O[C@H](CO)[C@@H](O)[C@H](O)[C@H]2O)O[C@@H]1Cc1ccc(O)cc1` [SPINONIN], for which the result in experiment [3], in experiment [4], in experiment [5], in experiment [6] and in experiment [7] was inactive. This compound registered an MIC in experiment [1] of 200 µg/mL (≈ 434 µM).
